This is an account of results in article PMC11870037 (Molecules, 2024).

Data set [1] deals with mice. The data set can be described thus: Tail suspension test (TST). It counts as in vivo, mouse. To be noted: oral, immobility duration.
The target in a further data set is adrenergic α1 receptor. The data set can be described thus: Adrenergic α1 receptor binding assay ([3H]prazosin). Conditions: rat cerebral cortex, means ± SEM of three experiments, read-out: Receptor Affinity Ki ± SEM α1.
Another data set deals with female rats. Conditions: females; cited from earlier work.
The subject of data set [2] is mice. Conditions: oral, immobility duration.

For orientation: Ki means a measure of affinity in units of concentration, obtained from inhibition or displacement. What is called LD50 is the dose expected to kill half of the subjects tested.

With `CNCC[C@H](Oc1cccc2ccccc12)c1cccs1` [Duloxetine, reference compound], the “minimal effective dose (MED) in TST” value in the data set on mice [1] is given as 16 mg/kg. Further, on adrenergic α1 receptor, the inhibition constant (Ki) is 1010 ± 97.8 nM. In addition, in the data set on female rats, the median lethal dose (LD50) was 279 mg/kg. Besides, in the data set on mice [2], the “minimal effective dose (MED) in FST” value is given as 16 mg/kg.
